Experimental data from patent EP2823816A1, “Inhibitors of Neuropilin and use thereof for the treatment of Neuropilin-related diseases” (Tragex Pharma, priority 2013, dated 2015).

Legend:
[1] = target: T1, Neuropilin-1 (NRP-1) (Homo sapiens, UniProt O14786); test: ELISA, inhibition of VEGF binding to coated receptor; details: VEGF-A165b / NRP-1; compound at 10 µM; read-out: Percent of binding inhibition (± SD)
T1 construct: purchased R&D Systems, UK 3870-N1-025
Experimental: (§1) Elisa test was performed covering a 96-well microplate (BD Biosciences, France, cat n° 353046) surface with 100 µL of 1X PBS, pH 7.4 with Ca^2+ and Mg^2+, (Lonza, France, cat n° 17-513F/12) solution containing 0.2 µg/mL of VEGF-R1 (R&D Systems, UK, cat n° 321-FL-050/CF) or 2 µg/mL of NRP-1 (R&D Systems, UK, cat n° 3870-N1-025). The plate was sealed and incubated overnight at 4°C. After 3 washes with 200 µL of 1X PBS 0.5% (v/v) Tween 20 (Sigma, France, cat n° 34078) (Buffer A), the plate was blocked by adding 200 µL of 1× PBS with 0.5% (w/v) BSA (Eurobio, France, cat n° GAUBSA01-65) and agitated at 37°C for 2 h. […] Luminescence was quantified with an EnVision™ 2101 Multilabel reader (Perkin Elmer, USA) and the data analyzed by Wallac Envision manager software. […] Non-specific binding is defined as the signal measured in the absence of receptor coated on the microplate. The specific binding was calculated as the difference between total binding and non-specific binding. The percentage of inhibition was calculated as following: Inhibition % = 100 × ((Signal measured-non specific binding signal))/((Max binding signal obtained without inhibitor-non specific binding signal without receptor)) [formula]

[2] = target: T2, VEGF-R1 (Homo sapiens, UniProt P17948); test: as above; details: VEGF-A165b / VEGF-R1; compound at 10 µM; read-out: Percent of binding inhibition (± SD)
T2 construct: purchased R&D Systems, UK 321-FL-050/CF
Experimental: as §1

[3] = system: MDA-MB-231 cells; test: In vivo xenograft study, tumor growth; details: NOD-SCID IL-2Rγ-/- mice, MDA-MB-231 xenograft, 10 or 50 mg/kg, oral gavage three times a week, Figure 5B
Experimental: Female (NOD-SCID, IL-2Rγ^-/-) mice 5-6 weeks old were injected subcutaneously with MDA-MB-231 cells (5.10^6) at a single site on their right flanks. Tumors were allowed to grow to about 100 mm^3 before being pair-matched by tumor size into treatment groups (8 mice/group). One group was treated with vehicles (8 mice receiving cremofor 12.5%/ethanol 12.5%/ H2O), one group was treated with 10 mg/kg of the compound 1 of the invention (8 mice receiving compound 1 + cremofor 12.5%/ethanol 12.5%/ H2O), one group was treated with 50 mg/kg of the compound 1 of the invention (8 mice receiving compound 1+ cremofor 12.5%/ethanol 12.5%/ H2O). All groups received 3 times a week by oral gavages approximately 100 µL of a solution containing the compound 1 of the invention. Mice were weighed regularly to assess toxicity of the treatments and the tumors were measured with calipers (width x width x length x Pi/6) to determine tumor growth. Mice survival was assessed during the study and metastatic development was investigated in lung, spleen and liver.

T1 sequence (O14786 22-644 isoform O14786-2 limits assumed): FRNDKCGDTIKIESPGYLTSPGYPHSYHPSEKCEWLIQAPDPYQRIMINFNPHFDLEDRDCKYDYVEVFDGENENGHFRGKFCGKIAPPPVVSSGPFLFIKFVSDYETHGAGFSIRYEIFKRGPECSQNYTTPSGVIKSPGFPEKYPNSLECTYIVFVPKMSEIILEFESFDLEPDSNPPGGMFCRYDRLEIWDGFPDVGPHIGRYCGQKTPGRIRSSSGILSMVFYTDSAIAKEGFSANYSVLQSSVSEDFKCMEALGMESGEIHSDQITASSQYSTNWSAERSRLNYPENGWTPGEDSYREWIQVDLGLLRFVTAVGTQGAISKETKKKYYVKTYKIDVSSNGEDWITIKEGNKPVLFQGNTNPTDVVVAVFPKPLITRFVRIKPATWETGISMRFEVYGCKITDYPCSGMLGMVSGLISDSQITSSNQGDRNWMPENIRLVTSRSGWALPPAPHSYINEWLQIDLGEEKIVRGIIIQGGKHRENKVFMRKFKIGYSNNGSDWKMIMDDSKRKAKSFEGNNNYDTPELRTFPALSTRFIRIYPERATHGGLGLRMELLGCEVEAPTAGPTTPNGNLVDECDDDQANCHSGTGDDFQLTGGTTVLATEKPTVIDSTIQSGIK
T2 sequence (P17948 with tags, fused parts or gaps limits assumed): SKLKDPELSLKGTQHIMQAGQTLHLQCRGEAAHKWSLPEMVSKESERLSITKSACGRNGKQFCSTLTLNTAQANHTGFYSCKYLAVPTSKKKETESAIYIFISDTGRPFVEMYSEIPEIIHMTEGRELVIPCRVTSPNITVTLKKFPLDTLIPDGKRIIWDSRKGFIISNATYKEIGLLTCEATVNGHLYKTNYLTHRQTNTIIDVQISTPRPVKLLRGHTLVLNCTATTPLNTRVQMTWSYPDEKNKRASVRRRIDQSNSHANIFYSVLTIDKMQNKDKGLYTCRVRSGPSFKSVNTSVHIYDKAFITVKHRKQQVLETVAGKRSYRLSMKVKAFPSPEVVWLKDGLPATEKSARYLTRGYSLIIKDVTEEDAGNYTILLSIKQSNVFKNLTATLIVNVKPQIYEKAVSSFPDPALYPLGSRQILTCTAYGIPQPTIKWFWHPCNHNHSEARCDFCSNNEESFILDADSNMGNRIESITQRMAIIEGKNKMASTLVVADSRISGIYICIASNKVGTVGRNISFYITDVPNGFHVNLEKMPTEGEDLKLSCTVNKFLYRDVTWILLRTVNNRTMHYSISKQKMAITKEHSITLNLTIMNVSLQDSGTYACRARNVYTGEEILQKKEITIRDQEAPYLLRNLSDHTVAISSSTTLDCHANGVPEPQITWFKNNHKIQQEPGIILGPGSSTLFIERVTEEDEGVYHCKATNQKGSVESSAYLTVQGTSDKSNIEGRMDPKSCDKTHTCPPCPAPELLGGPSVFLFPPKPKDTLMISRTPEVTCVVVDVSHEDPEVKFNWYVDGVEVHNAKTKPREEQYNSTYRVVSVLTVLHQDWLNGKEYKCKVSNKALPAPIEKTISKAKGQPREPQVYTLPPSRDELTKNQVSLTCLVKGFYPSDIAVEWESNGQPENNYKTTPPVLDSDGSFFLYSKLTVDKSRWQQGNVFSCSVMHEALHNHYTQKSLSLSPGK

**Q.** Which results are given for CCOc1ccccc1NC(=O)c1ccc(C)c(S(=O)(=O)Nc2ccc(C)cc2)c1 [Compound 1, N-(2-ethoxyphenyl)-4-methyl-3-(N-(p-tolyl)sulfamoyl)benzamide]?
**A.** inhibition at 10 µM [1]: 32 ± 3.2%; inhibition at 10 µM [2]: 23 ± 2.2%; development of tumors (tumor size) [3]: inhibits the development of tumors
